Molecules are shown by their SMILES.

This experiment deals with ALK2 (Homo sapiens (Human), UniProt Q04771). As to the kind of experiment: ALK2 inhibition, LanthaScreen Eu Kinase Binding Assay (ThermoFisher Scientific / Life Technologies). The settings on record: read-out: Measured Ki (IC50) Value for Compounds: IC50. The method, then: Biochemical assays to measure the inhibitory effects of the compounds were performed by ThermoFisher Scientific (Life Technologies). ALK2 inhibition was tested using LanthaScreen™ Eu Kinase Binding Assay screening protocol.
ALK2, sequence (Q04771 21-509): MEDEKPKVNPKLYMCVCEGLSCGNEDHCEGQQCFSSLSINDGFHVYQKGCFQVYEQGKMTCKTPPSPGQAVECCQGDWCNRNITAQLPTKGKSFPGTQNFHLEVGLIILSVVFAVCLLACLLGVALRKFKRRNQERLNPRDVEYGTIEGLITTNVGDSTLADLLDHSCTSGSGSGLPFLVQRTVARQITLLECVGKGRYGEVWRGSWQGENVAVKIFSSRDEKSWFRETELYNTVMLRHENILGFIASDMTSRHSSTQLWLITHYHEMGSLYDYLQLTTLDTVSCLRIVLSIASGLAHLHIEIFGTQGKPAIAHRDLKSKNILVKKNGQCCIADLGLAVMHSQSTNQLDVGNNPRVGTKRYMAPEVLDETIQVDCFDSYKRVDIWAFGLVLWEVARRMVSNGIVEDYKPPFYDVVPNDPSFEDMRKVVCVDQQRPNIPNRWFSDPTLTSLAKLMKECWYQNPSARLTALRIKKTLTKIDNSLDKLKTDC
For orientation: TR-FRET usually uses a lanthanide donor and a delayed reading to cut background.
What is called IC50 is the concentration at which inhibition is half-maximal. For `COc1cc(-n2cnc(Nc3nc(N4CCC[C@H]4CO)nn4cccc34)c2)cc(C#N)c1OC` [Compound 167f, (S)-5-(4-((2-(2-(hydroxymethyl)pyrrolidin-1-yl)pyrrolo[2,1-f][1,2,4]triazin-4-yl)amino)-1H-imidazol-1-yl)-2,3-dimethoxybenzonitrile], the half-maximal inhibitory concentration (IC50) is greater than 1000 nM.

Turning to `COc1cc(-n2cnc(Nc3nc(N4CCCC4)c4cccn4n3)c2)cc(OC)c1OC` [Compound 168b, 4-(pyrrolidin-1-yl)-N-(1-(3,4,5-trimethoxyphenyl)-1H-imidazol-4-yl)pyrrolo[2,1-f][1,2,4]triazin-2-amine], the IC50 was in the range of 100 to 1000 nM.

In the case of `COc1cc(-n2cnc(Nc3nc(N4CCC[C@H]4CO)nc4ncccc34)c2)cc(OC)c1OC` [Compound 169c, (S)-(1-(4-((1-(3,4,5-trimethoxyphenyl)-1H-imidazol-4-yl)amino)pyrido[2,3-d]pyrimidin-2-yl)pyrrolidin-2-yl)methanol], the IC50 was less than 100 nM.

On to `COc1cc(-n2cnc(Nc3nc(N4CCC[C@H]4C(N)=O)nc4ncccc34)c2)cc(OC)c1OC` [Compound 170a, (S)-1-(4-((1-(3,4,5-trimethoxyphenyl)-1H-imidazol-4-yl)amino)pyrido[2,3-d]pyrimidin-2-yl)pyrrolidine-2-carboxamide], for which the IC50 was less than 100 nM.

On to `COc1cc(-n2cnc(Nc3nc(N4CCC[C@H]4C(N)=O)nc4cc(OC(C)C)ccc34)c2)cc(OC)c1OC` [Compound 171a, (S)-1-(7-isopropoxy-4-((1-(3,4,5-trimethoxyphenyl)-1H-imidazol-4-yl)amino)quinazolin-2-yl)pyrrolidine-2-carboxamide], for which the IC50 was less than 100 nM.

Take `OC[C@@H]1CCCN1c1nc(Nc2cn(-c3ccccc3)cn2)nn2cccc12` [Compound 172a, (S)-(1-(2-((1-phenyl-1H-imidazol-4-yl)amino)pyrrolo[2,1-f][1,2,4]triazin-4-yl)pyrrolidin-2-yl)methanol]: the IC50 fell in the range of 100 to 1000 nM.

Turning to `COc1cc(-n2cnc(Nc3nc(N4CCC[C@H]4C(N)=O)c4ccn(S(=O)(=O)c5ccc(C)cc5)c4n3)c2)cc(OC)c1OC` [Compound 173b, (S)-1-(7-tosyl-2-((1-(3,4,5-trimethoxyphenyl)-1H-imidazol-4-yl)amino)-7H-pyrrolo[2,3-d]pyrimidin-4-yl)pyrrolidine-2-carboxamide], the IC50 is greater than 1000 nM.

On to `COc1cc(-n2cnc(Nc3nc(N4CCC[C@H]4C(N)=O)c4cc[nH]c4n3)c2)cc(OC)c1OC` [Compound 173c, (S)-1-(2-((1-(3,4,5-trimethoxyphenyl)-1H-imidazol-4-yl)amino)-7H-pyrrolo[2,3-d]pyrimidin-4-yl)pyrrolidine-2-carboxamide], for which the IC50 was less than 100 nM.

Turning to `COc1cc(-n2cnc(Nc3nc(N4CCC[C@H]4CO)c4cccnc4n3)c2)cc(OC)c1OC` [Compound 174b, (S)-(1-(2-((1-(3,4,5-trimethoxyphenyl)-1H-imidazol-4-yl)amino)pyrido[2,3-d]pyrimidin-4-yl)pyrrolidin-2-yl)methanol], the IC50 was less than 100 nM.

In the case of `COc1cc(-n2cnc(Nc3nc(N4CCC[C@H]4CO)c4ncccc4n3)c2)cc(OC)c1OC` [Compound 175b, (S)-(1-(2-((1-(3,4,5-trimethoxyphenyl)-1H-imidazol-4-yl)amino)pyrido[3,2-d]pyrimidin-4-yl)pyrrolidin-2-yl)methanol], the IC50 is less than 100 nM.

As to `COc1cc(-n2cnc(Nc3nc(N4CCC[C@@H]4C(N)=O)c4cccn4n3)c2)cc(OC)c1OC` [Compound 176b, (R)-1-(2-((1-(3,4,5-trimethoxyphenyl)-1H-imidazol-4-yl)amino)pyrrolo[2,1-f][1,2,4]triazin-4-yl)pyrrolidine-2-carboxamide], the IC50 was in the range of 100 to 1000 nM.

For `COc1cc(-n2cnc(Nc3nc4c(c(N5CCC[C@H]5CO)n3)CN(Cc3ccccc3)CC4)c2)cc(OC)c1OC` [Compound 177b, (S)-(1-(6-benzyl-2-((1-(3,4,5-trimethoxyphenyl)-1H-imidazol-4-yl)amino)-5,6,7,8-tetrahydropyrido[4,3-d]pyrimidin-4-yl)pyrrolidin-2-yl)methanol], the IC50 is less than 100 nM.

Regarding `COc1cc(-n2cnc(Nc3ccc4ccccc4c3)c2)cc(OC)c1OC` [Compound 178b, N-(naphthalen-2-yl)-1-(3,4,5-trimethoxyphenyl)-1H-imidazol-4-amine], the IC50 lay in the range of 100 to 1000 nM.

With `COc1cc(-n2cnc(Nc3ccc4ccccc4n3)c2)cc(OC)c1OC` [Compound 179b, N-(1-(3,4,5-trimethoxyphenyl)-1H-imidazol-4-yl)quinolin-2-amine], the IC50 is less than 100 nM.

`COc1cc(-n2cnc(Nc3nc(N4CCC[C@H]4CO)c4c(ccn4S(=O)(=O)c4ccc(C)cc4)n3)c2)cc(OC)c1OC` [Compound 180b, (S)-(1-(5-tosyl-2-((1-(3,4,5-trimethoxyphenyl)-1H-imidazol-4-yl)amino)-5H-pyrrolo[3,2-d]pyrimidin-4-yl)pyrrolidin-2-yl)methanol]: the IC50 is less than 100 nM.

In the case of `COc1cc(-n2cnc(Nc3nc4c(c(N5CCC[C@H]5CO)n3)CN(C(=O)OC(C)(C)C)CC4)c2)cc(OC)c1OC` [Compound 181c, (S)-tert-butyl 4-(2-(hydroxymethyl)pyrrolidin-1-yl)-2-((1-(3,4,5-trimethoxyphenyl)-1H-imidazol-4-yl)amino)-7,8-dihydropyrido[4,3-d]pyrimidine-6(5H)-carboxylate], the IC50 was less than 100 nM.

For `COc1cc(-n2cnc(Nc3nc4c(c(N5CCC[C@H]5CO)n3)CNCC4)c2)cc(OC)c1OC` [Compound 181d, (S)-(1-(2-((1-(3,4,5-trimethoxyphenyl)-1H-imidazol-4-yl)amino)-5,6,7,8-tetrahydropyrido[4,3-d]pyrimidin-4-yl)pyrrolidin-2-yl)methanol], the IC50 is less than 100 nM.

Turning to `COc1cc(-n2cnc(Nc3nc4c(c(N5CCC[C@H]5CO)n3)CCN(C(=O)OC(C)(C)C)C4)c2)cc(OC)c1OC` [Compound 182c, (S)-tert-butyl 4-(2-(hydroxymethyl)pyrrolidin-1-yl)-2-((1-(3,4,5-trimethoxyphenyl)-1H-imidazol-4-yl)amino)-5,6-dihydropyrido[3,4-d]pyrimidine-7(8H)-carboxylate], the IC50 was less than 100 nM.

`COc1cc(-n2cnc(Nc3nc4c(c(N5CCC[C@H]5CO)n3)CCNC4)c2)cc(OC)c1OC` [Compound 182d, (S)-(1-(2-((1-(3,4,5-trimethoxyphenyl)-1H-imidazol-4-yl)amino)-5,6,7,8-tetrahydropyrido[3,4-d]pyrimidin-4-yl)pyrrolidin-2-yl)methanol]: the 50% inhibitory concentration (IC50) was less than 100 nM.

For the compound `COc1cc(-n2cnc(Nc3nc(N4CCC[C@H]4CO)nc4c3CCN(C(=O)OC(C)(C)C)C4)c2)cc(OC)c1OC` [Compound 183b, (S)-tert-butyl 2-(2-(hydroxymethyl)pyrrolidin-1-yl)-4-((1-(3,4,5-trimethoxyphenyl)-1H-imidazol-4-yl)amino)-5,6-dihydropyrido[3,4-d]pyrimidine-7(8H)-carboxylate], the IC50 was less than 100 nM.

For `COc1cc(-n2cnc(Nc3nc(N4CCC[C@H]4CO)nc4c3CCNC4)c2)cc(OC)c1OC` [Compound 183c, (S)-(1-(4-((1-(3,4,5-trimethoxyphenyl)-1H-imidazol-4-yl)amino)-5,6,7,8-tetrahydropyrido[3,4-d]pyrimidin-2-yl)pyrrolidin-2-yl)methanol], the IC50 was less than 100 nM.

For `COc1cc(-n2cnc(Nc3nc(N4CCCC4)nc4c3CCN(C(=O)OC(C)(C)C)C4)c2)cc(OC)c1OC` [Compound 184a, tert-butyl 2-(pyrrolidin-1-yl)-4-((1-(3,4,5-trimethoxyphenyl)-1H-imidazol-4-yl)amino)-5,6-dihydropyrido[3,4-d]pyrimidine-7(8H)-carboxylate], the IC50 was less than 100 nM.

As for `COc1cc(-n2cnc(Nc3nc(N4CCCC4)nc4c3CCNC4)c2)cc(OC)c1OC` [Compound 184b, 2-(pyrrolidin-1-yl)-N-(1-(3,4,5-trimethoxyphenyl)-1H-imidazol-4-yl)-5,6,7,8-tetrahydropyrido[3,4-d]pyrimidin-4-amine], the IC50 was less than 100 nM.

Turning to `COc1cc(-n2cnc(Nc3nc(N4CCC[C@H]4C(N)=O)nc4c3CCN(C(=O)OC(C)(C)C)C4)c2)cc(OC)c1OC` [Compound 185a, (S)-tert-butyl 2-(2-carbamoylpyrrolidin-1-yl)-4-((1-(3,4,5-trimethoxyphenyl)-1H-imidazol-4-yl)amino)-5,6-dihydropyrido[3,4-d]pyrimidine-7(8H)-carboxylate], the IC50 was less than 100 nM.

For `COc1cc(-n2cnc(Nc3nc(N4CCC[C@H]4C(N)=O)nc4c3CCNC4)c2)cc(OC)c1OC` [Compound 185b, (S)-1-(4-((1-(3,4,5-trimethoxyphenyl)-1H-imidazol-4-yl)amino)-5,6,7,8-tetrahydropyrido[3,4-d]pyrimidin-2-yl)pyrrolidine-2-carboxamide], the IC50 was less than 100 nM.

In the case of `COc1cc(-n2cnc(Nc3nc(N4CCCC4)nc4ncccc34)c2)cc(OC)c1OC` [Compound 186a, 2-(pyrrolidin-1-yl)-N-(1-(3,4,5-trimethoxyphenyl)-1H-imidazol-4-yl)pyrido[2,3-d]pyrimidin-4-amine], the IC50 was less than 100 nM.

Turning to `COc1cc(-n2cnc(Nc3ncnn4cccc34)c2)cc(OC)c1OC` [Compound 187b, N-(1-(3,4,5-trimethoxyphenyl)-1H-imidazol-4-yl)pyrrolo[2,1-f][1,2,4]triazin-4-amine], the IC50 was less than 100 nM.

Consider `COc1cc(-n2cnc(Nc3nc(N4CCCC4)nc4cccnc34)c2)cc(OC)c1OC` [Compound 188a, 2-(pyrrolidin-1-yl)-N-(1-(3,4,5-trimethoxyphenyl)-1H-imidazol-4-yl)pyrido[3,2-d]pyrimidin-4-amine], for which the IC50 was less than 100 nM.

With `COc1cc(-n2cnc(Nc3nc(N4CCC[C@H]4C(N)=O)nc4ccsc34)c2)cc(OC)c1OC` [Compound 189a, (S)-1-(4-((1-(3,4,5-trimethoxyphenyl)-1H-imidazol-4-yl)amino)thieno[3,2-d]pyrimidin-2-yl)pyrrolidine-2-carboxamide], the IC50 is less than 100 nM.

Regarding `COc1cc(-n2cnc(Nc3nc(N4CCC[C@H]4C(N)=O)nc4ccoc34)c2)cc(OC)c1OC` [Compound 190a, (S)-1-(4-((1-(3,4,5-trimethoxyphenyl)-1H-imidazol-4-yl)amino)furo[3,2-d]pyrimidin-2-yl)pyrrolidine-2-carboxamide], the IC50 was less than 100 nM.

Values taken from patent US11661426B2, “Imidazole-containing inhibitors of ALK2 kinase” (BioCryst Pharmaceuticals, Inc., priority 2017, dated 2023).
